Reference: ChEMBL document CHEMBL4334502, “Basimarols A, B, and C, Highly Oxygenated Pimarane Diterpenoids from Basilicum polystachyon” (J Nat Prod, 2019)
Active and inactive are the calls of the source. The rule behind the calls is not given here.

How the values were obtained:
[1] = test system: Kunjin virus; assay: Antiviral activity against West Nile virus Kunjin infected in African green monkey Vero cells assessed as reduction in plague formation incubated for 72 hrs by immunofluorescence assay; format: functional
[2] = test system: Dengue virus; assay: Antiviral activity against DENV infected in African green monkey Vero cells assessed as reduction in plague formation incubated for 72 hrs by immunofluorescence assay; format: functional, organism-based
[3] = test system: Influenza A virus H3N2; assay: Antiviral activity against influenza virus H3N2 infected in MDCK cells assessed as reduction in plague formation incubated for 72 hrs by immunofluorescence assay; format: functional, organism-based
[4] = test system: Influenza A virus; assay: Antiviral activity against influenza virus H1N1 infected in MDCK cells assessed as reduction in plague formation incubated for 72 hrs by immunofluorescence assay; format: functional, organism-based
[5] = test system: MCF7; assay: Cytotoxicity against human MCF7 cells assessed as reduction in cell viability incubated for 6 days by SRB assay; format: functional, cell-based; settings: MCF7, 144 h
[6] = test system: SK-MEL-28; assay: Cytotoxicity against human SK-MEL-28 cells assessed as reduction in cell viability incubated for 6 days by SRB assay; format: functional, cell-based; settings: SK-MEL-28, 144 h
[7] = test system: NFF; assay: Cytotoxicity against human NFF cells assessed as reduction in cell viability incubated for 6 days by SRB assay; format: cell-based; settings: 144 h

**Q.** Which IC50 [1] does the source give for C=C1CC[C@@H]2[C@](C)(CO)[C@H](O)CC[C@@]2(C)[C@@H]1C/C=C1/C(=O)OC[C@H]1O [ANDROGRAPHOLIDE] here?
**A.** 100 µM

**Q.** What about the Activity [2] of the same molecule?
**A.** Active

**Q.** And the Activity [3]?
**A.** inactive

**Q.** What about the Activity [4] of the same molecule?
**A.** inactive

**Q.** With C=C[C@]1(C)C[C@@]2(O)[C@H](CC1=O)C13CO[C@@](O)([C@H]1[C@@](C)(COC(=O)c1ccccc1)CC[C@H]3O)[C@H]2OC(C)=O as the molecule, how does the IC50 [5] read?
**A.** 57 µM

**Q.** What about the Activity [2] of the same molecule?
**A.** Active

**Q.** What about the IC50 [6] of the same molecule?
**A.** 70 µM

**Q.** And the IC50 [7]?
**A.** 53 µM

**Q.** Which IC50 [1] does the source give for C=C/C(C)=C/C[C@H]1C(C)=CC[C@@H]2[C@]1(C)CCC[C@@]2(C)C(=O)O here?
**A.** 1.2 µM

**Q.** And the IC50 [2]?
**A.** 1.4 µM

**Q.** And the IC50 [3]?
**A.** 18 µM

**Q.** And the IC50 [4]?
**A.** 4.1 µM

**Q.** Which results are given for C=C[C@]1(C)C[C@]2(O)[C@H](OC(C)=O)C(=O)[C@H]3C(C)(C)CC[C@H](O)[C@]3(COC(C)=O)[C@H]2C[C@@H]1OC(C)=O?
**A.** IC50 [5]: 179 µM; Activity [2]: Active; IC50 [6]: > 200 µM; IC50 [7]: > 200 µM

**Q.** For C=C[C@]1(C)C[C@@]23O[C@@H](OC(C)=O)C4([C@H]2C[C@@H]1O)[C@@H](O)CCC(C)(C)[C@@H]4C(=O)[C@H]3OC(C)=O, which IC50 [5] is on record?
**A.** 86 µM

**Q.** What about the Activity [2] of the same molecule?
**A.** Active

**Q.** What about the IC50 [6] of the same molecule?
**A.** 158 µM

**Q.** And the IC50 [7]?
**A.** 95 µM
